{"source": "patent US20040119048A1", "about": "“Process of making aqueous perborate bleach composition” (Unilever Home & Personal Care USA, Divison of Conopco, Inc., priority 2002, published 2004)", "assay": "Iterative determination of perborate solubility in water and polyol/water (visual appearance, pH)", "type": "physicochemical", "method": "An iterative process was used to determine the extent of perborate solubilty in water and polyol/water. 1.5 g of Na perborate monohydrate was added either to 100 g of water (Table 1A) or to 90 g water and 10 g sorbitol (70% active) (Table 1B). The mixture was stirred until all of sodium perborate monohydrate was dissolved. A 0.5 g aliquot of sodium perborate monohydrate was then added to the solution while stirring and visually monitored to see if all the added sodium perborate monohydrate dissolves. If the aliquot dissolved, another 0.5 g of sodium perborate monohydrate would be added. This procedure was continued until the added perborate no longer appeared to dissolve.", "data": [{"smiles": "O.O=BO[O-].[Na+]", "note": "[Sodium Perborate monohydrate, sodium perborate monohydrate]", "values": [{"measurement": "solubility in water in the presence of polyol", "setting": "90 g water + 10 g sorbitol (70%)", "value": "up to 8.5 g"}, {"measurement": "increase of perborate solubility by polyol", "setting": "aqueous environment, with polyol vs without", "value": "about 400%"}]}]}
